Several values for one entry are separate records, joined by “and”; a condition that tells them apart may be missing. Equal entries are not always repeated. Numbers after ± are expanded uncertainties.
Settings: 343.16 K, Liquid, Vibrating tube method

CCCCCC(=O)OCC(COC(=O)CCCCC)(COC(=O)CCCCC)COC(=O)CCCCC [pentaerythritol tetrahexanoate]
Settings | mass density
19959 kPa | 971.7 ± 1.2 kg/m3
19975 kPa | 971.6 ± 1.2 kg/m3
19990 kPa | 971.8 ± 1.2 kg/m3
20010 kPa | 971.8 ± 1.2 kg/m3
20026 kPa | 971.6 ± 1.2 kg/m3
20042 kPa | 971.7 ± 1.2 kg/m3
20054 kPa | 971.7 ± 1.2 kg/m3
20065 kPa | 971.8 ± 1.2 kg/m3
20075 kPa | 971.6 ± 1.2 kg/m3
20086 kPa | 971.7 ± 1.2 kg/m3
20099 kPa | 971.8 ± 1.2 kg/m3
20105 kPa | 971.8 ± 1.2 kg/m3
20106 kPa | 971.8 ± 1.2 kg/m3
20108 kPa | 971.7 ± 1.2 kg/m3
20111 kPa | 971.8 ± 1.2 kg/m3
20114 kPa | 971.8 ± 1.2 kg/m3
20116 kPa | 971.8 ± 1.2 kg/m3
20117 kPa | 971.8 ± 1.2 kg/m3
20118 kPa | 971.7 ± 1.2 kg/m3
20119 kPa | 971.7 ± 1.2 kg/m3
20121 kPa | 971.6 ± 1.2 kg/m3
20122 kPa | 971.7 ± 1.2 kg/m3
20124 kPa | 971.6 ± 1.2 kg/m3 and 971.8 ± 1.2 kg/m3
20140 kPa | 971.8 ± 1.2 kg/m3
20174 kPa | 971.9 ± 1.2 kg/m3
20204 kPa | 971.8 ± 1.2 kg/m3
20239 kPa | 971.8 ± 1.2 kg/m3
20269 kPa | 971.9 ± 1.2 kg/m3
20298 kPa | 971.8 ± 1.2 kg/m3
20328 kPa | 971.8 ± 1.2 kg/m3
20365 kPa | 971.9 ± 1.2 kg/m3
20395 kPa | 971.8 ± 1.2 kg/m3
20426 kPa | 972 ± 1.2 kg/m3
20462 kPa | 971.8 ± 1.2 kg/m3
20493 kPa | 972 ± 1.2 kg/m3
20525 kPa | 972 ± 1.2 kg/m3
20558 kPa | 971.9 ± 1.2 kg/m3
20589 kPa | 972 ± 1.2 kg/m3
20626 kPa | 972.1 ± 1.2 kg/m3
20657 kPa | 972.3 ± 1.2 kg/m3
20689 kPa | 972.1 ± 1.2 kg/m3
20727 kPa | 972.1 ± 1.2 kg/m3
20759 kPa | 972.2 ± 1.2 kg/m3
20790 kPa | 972.2 ± 1.2 kg/m3
20828 kPa | 972.3 ± 1.2 kg/m3
20860 kPa | 972.2 ± 1.2 kg/m3
20892 kPa | 972.2 ± 1.2 kg/m3
20930 kPa | 972.4 ± 1.2 kg/m3
20963 kPa | 972.3 ± 1.2 kg/m3
20998 kPa | 972.3 ± 1.2 kg/m3
21030 kPa | 972.4 ± 1.2 kg/m3
21068 kPa | 972.5 ± 1.2 kg/m3
21101 kPa | 972.4 ± 1.2 kg/m3
21134 kPa | 972.4 ± 1.2 kg/m3
21166 kPa | 972.5 ± 1.2 kg/m3
21238 kPa | 972.5 ± 1.2 kg/m3
21271 kPa | 972.5 ± 1.2 kg/m3
21309 kPa | 972.6 ± 1.2 kg/m3
21339 kPa | 972.6 ± 1.2 kg/m3
21372 kPa | 972.6 ± 1.2 kg/m3
21399 kPa | 972.7 ± 1.2 kg/m3
21426 kPa | 972.6 ± 1.2 kg/m3
21732 kPa | 972.7 ± 1.2 kg/m3
21757 kPa | 972.8 ± 1.2 kg/m3
21782 kPa | 972.8 ± 1.2 kg/m3
21811 kPa | 972.9 ± 1.2 kg/m3
22020 kPa | 972.9 ± 1.2 kg/m3
22050 kPa | 973.1 ± 1.2 kg/m3
22076 kPa | 973.1 ± 1.2 kg/m3
22102 kPa | 973 ± 1.2 kg/m3
22132 kPa | 973.1 ± 1.2 kg/m3
22157 kPa | 973 ± 1.2 kg/m3
22183 kPa | 973.2 ± 1.2 kg/m3
22214 kPa | 973.1 ± 1.2 kg/m3
22240 kPa | 973.1 ± 1.2 kg/m3
22266 kPa | 973.1 ± 1.2 kg/m3
22296 kPa | 973.1 ± 1.2 kg/m3
22322 kPa | 973.2 ± 1.2 kg/m3
22348 kPa | 973.2 ± 1.2 kg/m3
22379 kPa | 973.3 ± 1.2 kg/m3
22405 kPa | 973.1 ± 1.2 kg/m3
22432 kPa | 973.3 ± 1.2 kg/m3
22458 kPa | 973.2 ± 1.2 kg/m3
22489 kPa | 973.3 ± 1.2 kg/m3
22515 kPa | 973.3 ± 1.2 kg/m3
22547 kPa | 973.4 ± 1.2 kg/m3
22573 kPa | 973.4 ± 1.2 kg/m3
23002 kPa | 973.6 ± 1.2 kg/m3
23035 kPa | 973.7 ± 1.2 kg/m3
23063 kPa | 973.7 ± 1.2 kg/m3
23092 kPa | 973.8 ± 1.2 kg/m3
23125 kPa | 973.8 ± 1.2 kg/m3
23154 kPa | 973.8 ± 1.2 kg/m3
23183 kPa | 973.8 ± 1.2 kg/m3
23212 kPa | 973.9 ± 1.2 kg/m3
23246 kPa | 973.9 ± 1.2 kg/m3
23274 kPa | 973.9 ± 1.2 kg/m3
23301 kPa | 974 ± 1.2 kg/m3
23332 kPa | 973.8 ± 1.2 kg/m3
23381 kPa | 974 ± 1.2 kg/m3
23410 kPa | 974 ± 1.2 kg/m3
23435 kPa | 974 ± 1.2 kg/m3
23459 kPa | 974 ± 1.2 kg/m3
23484 kPa | 974.1 ± 1.2 kg/m3
23514 kPa | 973.9 ± 1.2 kg/m3
23540 kPa | 974.1 ± 1.2 kg/m3
23566 kPa | 974 ± 1.2 kg/m3
23591 kPa | 974.2 ± 1.2 kg/m3
23616 kPa | 974 ± 1.2 kg/m3
23646 kPa | 974.1 ± 1.2 kg/m3
23671 kPa | 974.1 ± 1.2 kg/m3
23696 kPa | 974.1 ± 1.2 kg/m3
23727 kPa | 974.1 ± 1.2 kg/m3
23752 kPa | 974 ± 1.2 kg/m3
23782 kPa | 974.2 ± 1.2 kg/m3
23914 kPa | 974.3 ± 1.2 kg/m3
23941 kPa | 974.3 ± 1.2 kg/m3
23971 kPa | 974.5 ± 1.2 kg/m3
23997 kPa | 974.2 ± 1.2 kg/m3
24028 kPa | 974.3 ± 1.2 kg/m3
24054 kPa | 974.2 ± 1.2 kg/m3
24080 kPa | 974.3 ± 1.2 kg/m3
24106 kPa | 974.3 ± 1.2 kg/m3
24137 kPa | 974.4 ± 1.2 kg/m3
24163 kPa | 974.4 ± 1.2 kg/m3
24190 kPa | 974.4 ± 1.2 kg/m3
24221 kPa | 974.4 ± 1.2 kg/m3
24248 kPa | 974.4 ± 1.2 kg/m3
24279 kPa | 974.4 ± 1.2 kg/m3
24306 kPa | 974.4 ± 1.2 kg/m3
26698 kPa | 976.1 ± 1.2 kg/m3
26725 kPa | 976 ± 1.2 kg/m3
26758 kPa | 976.2 ± 1.2 kg/m3
26785 kPa | 976.3 ± 1.2 kg/m3
26812 kPa | 976.3 ± 1.2 kg/m3
26845 kPa | 976.2 ± 1.2 kg/m3
27601 kPa | 976.6 ± 1.2 kg/m3
27630 kPa | 976.8 ± 1.2 kg/m3
27660 kPa | 976.8 ± 1.2 kg/m3
27697 kPa | 976.8 ± 1.2 kg/m3
27728 kPa | 976.7 ± 1.2 kg/m3
27758 kPa | 976.8 ± 1.2 kg/m3
27787 kPa | 976.8 ± 1.2 kg/m3
27824 kPa | 976.7 ± 1.2 kg/m3
27854 kPa | 976.9 ± 1.2 kg/m3
